Reference: patent US4057686A, “Sulphonic acid salts of S-adenosilmethionine” (Bioresearch Limited, priority 1974, dated 1977)
Where two headings read alike, the source gives them in different places.

Experiments:
[1] = test system: Parkinsons disease and Parkinsonisms; assay: Clinical tests: Parkinsons disease and Parkinsonisms, with Levodopa; type: in vivo, human
depressive forms = assay: Clinical tests: depressive forms (tests of Hamilton and Wittenberg); type: in vivo, human; conditions: 8 to 20 mg 3-4 times per day, 5-15 days, no other therapy
[2] = test system: stretching by acetic acid; assay: Stretching by acetic acid analgesia test; type: in vivo; conditions: in comparison with known drugs studied
Description: (§1) Of the various tests we shall mention the most classic, namely the edema by carragenine and by egg white as a test for acute inflammation; and granuloma by cotton pellets and arthritis by adjuvant as a test for chronic inflammation. […] The analgesia tests were in the form of the hot plate test and stretching by acetic acid, and the Randal and Selitto test in the rat.

[3] = test system: neuritis, polyneuritis, anthralgia, sciatica, radiocolitis, torticollis; cephalalgia
Procedure: The antalgic activity of SAM was also tested in different subjects with different neurological frameworks: neuritis, polyneuritis, anthralgia, sciatica, radiocolitis, torticollis.

rats = conditions: rat, in vivo
[4] = test system: subjects with hyperdislipidemia in the uncompensated stage; assay: Clinical tests: hyperdislipidemia; type: in vivo, human; conditions: 2-3 times per day
osteoarthritic forms = assay: Clinical tests: osteoarthritis; type: in vivo, human
rabbit [5] = conditions: in vivo, 16 mg/kg
arthritis by adjuvant = assay: Arthritis by adjuvant (chronic inflammation); type: in vivo; conditions: orally 8 to 40 mg/kg; parenterally 4 to 8 mg/kg; in comparison with Ibuprofen, Indometacina
Description: as §1

mouse = assay: Acute toxicity (DL50) in the mouse; type: in vivo
Description: In particular, the DL50 in the mouse in greater than 2.5 g/kg/os and 1.00 g/kg/i.p.

[6] = mouse, in vivo
Description: Parallel with this, an autoradiographic study was made on the mouse.

cat = conditions: in vivo, 16 mg/kg
[7] = test system: hepatic cholesterol degeneration; assay: Hepatic cholesterol degeneration in the rat (Ridout); type: in vivo; conditions: for Fresh liver weight: three weeks
Description: (§2) The values are the averages ± E.S. of 10 values for each group. In studying the hepatoprotective activity we have used an experimental device which produces in the rat the so-called hepatic cholesterol degeneration (Ridout and Coll., Biochem. J. 52, 99, 1952).
In this method, by means of a suitable diet, a conspicuous increase in the total hepatic fats and hepatic cholesterol are obtained in the animals. The substances which act in the lipidic metabolism reduce or annul this increase.
The animals were divided into six groups. The first group was administered with a diet which was varied at will. The second group was administered with the basic diet of Ridout (20 g per rat per day); the other groups were administered with the same diet in the same doses but enriched with cholesterol to the extent of 0.2 g/rat/day. The treatment lasted three weeks. The groups 4,5,6 were administered with SAM in the following doses:
0.4, 0.8, 2 mg/kg/i.p. per day.
At the end of the three weeks all the animals were killed, the livers were withdrawn and the total fats (Best and Coll., Biochem. J. 40, 368, 1966) and cholesterol (Sperry and Brand, J. Biol. Chem. 150, 315, 1943) were determined.

[8] = test system: subjects with hypoprotidemias, disprotidemias, chronic hepatopathias, precyrrotic and cyrrotic states, malabsorption and protide dispersing syndromes; assay: Clinical tests: hypoprotidemias, chronic hepatopathias, cyrrotic states, malabsorption; type: in vivo, human; conditions: 20 to 80 mg per day, intermuscular, intravenous or oral
Procedure: 2. Hundreds of subjects were treated clinically affected with: secondary hypoprotidemias and disprotidemias; persistent and aggressive chronic hepatopathias; precyrrotic and cyrrotic states; malabsorption syndromes, and protide dispersing syndromes.

edema by carragenine = assay: Edema by carragenine (acute inflammation); type: in vivo; conditions: orally 8 to 40 mg/kg; parenterally 4 to 8 mg/kg; in comparison with Ibuprofen, Indometacina
Description: as §1

hepatic steatosis = assay: Hepatic steatosis models in rats (Handler diet, acute alcoholic intoxication, toxic agents); type: in vivo, rat
Description: (§3) This was confirmed by subsequent pharmacological tests.

edema by egg white = assay: Edema by egg white (acute inflammation); type: in vivo; conditions: orally 8 to 40 mg/kg; parenterally 4 to 8 mg/kg; in comparison with Ibuprofen, Indometacina
Description: as §1

[9] = test system: young volunteer healthy subjects of both sexes; assay: Tolerability in young volunteer healthy subjects; type: in vivo; conditions: man, 5-150 mg
[10] = test system: granuloma by cotton pellets; assay: Granuloma by cotton pellets (chronic inflammation); type: in vivo; conditions: orally 8 to 40 mg/kg; parenterally 4 to 8 mg/kg; in comparison with Ibuprofen, Indometacina
Description: as §1

[11] = test system: disturbances of the sleeping-waking rhythm, insomnia; assay: Clinical tests: disturbances of the sleeping-waking rhythm; type: in vivo, human; conditions: 4-13 mg orally
hepatic phospholipids = assay: Hepatic phospholipids in rats after intoxication with CCl4; type: in vivo, rat
Description: as §3
Hepatic phospholipids in rats after intoxication with CCl4 and treatment with SAM.
as §2

[12] = test system: sleeping time induced by hexobarbital; assay: Hexobarbital sleeping time in mice (Holten and Larsen); type: in vivo
Procedure: A further aspect considered by us was the possible action of SAM on the sleeping time by barbiturates.
For this purpose an experiment was carried out in which groups of mice received hexobarbital in a dose of 80 mg/kg/i.p. in accordance with the method of Holten and Larsen (Acta Pharmacol. Toxicol. 1956, 12, 346); one group was the control group and the second received SAM in a dose of 4 mg/kg/i.p. (table).

rabbit [13] = assay: Local tolerability of injections; type: in vivo
[14] = in vivo, 4.2 mg/kg; for Distribution of SAM in rat tissues: Hypophysis / Distribution of SAM in rat tissues: Hypothalamus / Distribution of SAM in rat tissues: Liver / Distribution of SAM in rat tissues: Plasma / Distribution of SAM in rat tissues: Rind / Distribution of SAM in rat tissues: Spleen / Distribution of SAM in rat tissues: Suprarenal glands: iv
Procedure: In order to indicatively determine how SAM is distributed in the tissues, S-Adenosilmethionine (Methyl C^14) was prepared. The distribution of this product in rats was studied by administering a dose of 4.2 mg/kg/e.v. equal to approxymately 10 μci of radioactive product. The specific activity of the product was 58 mCi/m moles.

Randal and Selitto test = assay: Randal and Selitto analgesia test in the rat; type: in vivo; conditions: in comparison with known drugs studied
Description: as §1

[15] = test system: clear arteriosclerosis with clinical manifestations of the psycho-affective sphere; assay: Clinical tests: arteriosclerosis, hypoxydotic states, post-apoplectic syndromes; type: in vivo, human
hot plate test = assay: Hot plate analgesia test; type: in vivo; conditions: in comparison with known drugs studied
Description: as §1

rabbits = conditions: rabbit, in vivo
[16] = SAM content / stability on storage in the dry state; type: physicochemical; conditions: 60 days at 45°
Procedure: The great technical progress achieved by these new salts is their stability with time at 45° in the dry state.
The SAM content of all acids according to the present invention remains unchanged even after […] at 45° in the dry state.

SMILES: N[C@@H](Cc1ccc(O)c(O)c1)C(=O)O [Levodopa, reference compound]
- extent of the Parkinson tremor ([1]; Levodopa alone): cannot be modified

SMILES: C[S+](CC[C@H](N)C(=O)O)C[C@H]1O[C@@H](n2cnc3c(N)ncnc32)[C@H](O)[C@@H]1O (stereo partly drawn) [SAM, S-Adenosil-L-Methionine]
- remission of main parameters of depressive forms (depressive forms): a significant remissione of the main parameters
- analgesic activity [2]: active
- therapeutic (antalgic) effect ([3]; neurological frameworks, 6 mg twice a day intermuscular or 13-20 mg 3-4 times per day orally): available and efficient from the first day of administration
- therapeutic effect in recurring and resistant cephalalgia ([3]; orally in masticable tablets): Analogous results were obtained
- teratogenic actions or malformations (rats): no teratogenic actions were encountered or any malformations
- dose dependence of hypocholesterolemising and hypolipemising action ([4]; doses of about 8-1.5 mg): proportional to the dose
- hypertriglyceridemia ([4]; hyperdislipidemia): a marked fall
- total cholesterolemia ([4]; hyperdislipidemia): a marked fall
- β/α lipoproteic ratios ([4]; hyperdislipidemia): normalises
- activity in osteoarthritic forms (osteoarthritic forms; 13 mg twice a day intermuscular or intravenous, and 13-20 mg orally 4 times per day): active in all osteoarthritic forms
- muscular spasm, limitation of movement, localised pain and rigidity (osteoarthritic forms; after 7 days, with respect to the placebo): influenced in a statistically significant manner
- therapeutic efficiency vs non-steroid antiphlogistic drug (osteoarthritic forms; double blind study): equal to indomethacin
- carotid pressure, cardiac and respiratory frequency, electrocardiac trace (rabbit [5]): does not cause any change
- anti-inflammatory activity (arthritis by adjuvant): active
- DL50 in the mouse (mouse; i.p.): > 1.00 g/kg
- DL50 in the mouse (mouse; os): greater than 2.5 g/kg
- distribution to tissues [6]: distributed very rapidly to all the tissues
- carotid pressure, cardiac and respiratory frequency, electrocardiac trace (cat): does not cause any change
- protection of the batch ([7]; 2 mg/kg/i.p.): completely protected
- protection of the batch ([7]; 0.4-0.8 mg/kg/i.p.): poorly protected
- Fresh liver weight ([7]; batch IV, 0.4 mg/kg/i.p. per day): 17 g
- Fresh liver weight ([7]; batch V, 0.8 mg/kg/i.p. per day): 16 g
- albumin level [8]: an increase in the albumin level
- percentage ratios between the electrophoretic fractions of the serum [8]: a tendency to normalise
- subjective symptomology and general objective conditions [8]: often very important improvement
- tests of hepatic functionality [8]: normalising of all the tests of hepatic functionality
- total protidemia [8]: a statistically significant increase
- anti-inflammatory activity (edema by carragenine): active
- accumulation of lipids at the hepatocite level (hepatic steatosis): significantly reduces
- anti-inflammatory activity (edema by egg white): active
- hemopoietic apparatus and hepatic and renal operation ([9]; intravenous): no variations from normal which were statistically significant
- electrocardiograph trace ([9]; intravenous, 30" to 20', PQ interval, ST section, extrasistol): does not show any variation
- minimum and maximum pressure, pulse and respiratory frequency ([9]; rapid intravenous or phleboclysis, 1 minute to 24 hours): does not show any variation from normal values
- anti-inflammatory activity [10]: active
- akinesia and rigidity ([1]; 4-16 mg per day with Levodopa, vs patients treated only with Levodopa): a statistically more significant improvement
- extent of the Parkinson tremor ([1]; SAM in association with Levodopa): Favourable modifications
- Levodopa dependent psychic disturbances ([1]; depressive states and psychic manifestations of irritative type): distinctly improves
- Levodopa side effects ([1]; nausea, vomit, inappetite, hypotension, asthenia, cephalea, hypersudoration, insomnia, 4-16 mg per day): significantly blocks
- sleeping-waking ratios [11]: considerably improve
- restoration of normal levels of phospholipids (hepatic phospholipids): favours the restoration of normal levels of phospholipids
- prolonging the sleeping time induced by hexobarbital [12]: active in prolonging the sleeping time
- local tolerability of the intramuscular injection (rabbit [13]; intramuscular, even repeated over 180 days): excellent
- local tolerability of the intravenous injection (rabbit [13]; intravenous, marginal vein of the auricular pavilion of the rabbit): excellent
- Distribution of SAM in rat tissues: Hypophysis ([14]; 0.25 h): 2.3 μgr/gr
- Distribution of SAM in rat tissues: Hypothalamus ([14]; 0.25 h): 0.3 μgr/gr
- Distribution of SAM in rat tissues: Liver ([14]; 0.25 h): 1.7 μgr/gr
- Distribution of SAM in rat tissues: Plasma ([14]; 0.25 h): 7.5 μgr/gr
- Distribution of SAM in rat tissues: Rind ([14]; 0.25 h): 0.25 μgr/gr
- Distribution of SAM in rat tissues: Spleen ([14]; 0.25 h): 1.3 μgr/gr
- Distribution of SAM in rat tissues: Suprarenal glands ([14]; 0.25 h): 1.9 μgr/gr
- Distribution of SAM in rat tissues: Hypophysis ([14]; 1 h): 2.5 μgr/gr
- Distribution of SAM in rat tissues: Hypothalamus ([14]; 1 h): 0.65 μgr/gr
- Distribution of SAM in rat tissues: Liver ([14]; 1 h): 3.0 μgr/gr
- Distribution of SAM in rat tissues: Plasma ([14]; 1 h): 2.1 μgr/gr
- Distribution of SAM in rat tissues: Rind ([14]; 1 h): 0.45 μgr/gr
- Distribution of SAM in rat tissues: Spleen ([14]; 1 h): 1.2 μgr/gr
- Distribution of SAM in rat tissues: Suprarenal glands ([14]; 1 h): 3.4 μgr/gr
- Distribution of SAM in rat tissues: Hypophysis ([14]; 4 h): 8.0 μgr/gr
- Distribution of SAM in rat tissues: Hypothalamus ([14]; 4 h): 1.0 μgr/gr
- Distribution of SAM in rat tissues: Liver ([14]; 4 h): 5.5 μgr/gr
- Distribution of SAM in rat tissues: Plasma ([14]; 4 h): 2.3 μgr/gr
- Distribution of SAM in rat tissues: Rind ([14]; 4 h): 0.75 μgr/gr
- Distribution of SAM in rat tissues: Spleen ([14]; 4 h): 3.5 μgr/gr
- Distribution of SAM in rat tissues: Suprarenal glands ([14]; 4 h): 4.8 μgr/gr
- Distribution of SAM in rat tissues: Hypophysis ([14]; 8 h): 4.5 μgr/gr
- Distribution of SAM in rat tissues: Hypothalamus ([14]; 8 h): 1.3 μgr/gr
- Distribution of SAM in rat tissues: Liver ([14]; 8 h): 5.6 μgr/gr
- Distribution of SAM in rat tissues: Plasma ([14]; 8 h): 2.0 μgr/gr
- Distribution of SAM in rat tissues: Rind ([14]; 8 h): 8.5 μgr/gr
- Distribution of SAM in rat tissues: Spleen ([14]; 8 h): 2.6 μgr/gr
- Distribution of SAM in rat tissues: Suprarenal glands ([14]; 8 h): 4.5 μgr/gr
- Distribution of SAM in rat tissues: Hypophysis ([14]; 24 h): 4.2 μgr/gr
- Distribution of SAM in rat tissues: Hypothalamus ([14]; 24 h): 1.3 μgr/gr
- Distribution of SAM in rat tissues: Liver ([14]; 24 h): 5.7 μgr/gr
- Distribution of SAM in rat tissues: Plasma ([14]; 24 h): 1.1 μgr/gr
- Distribution of SAM in rat tissues: Rind ([14]; 24 h): 9.4 μgr/gr
- Distribution of SAM in rat tissues: Spleen ([14]; 24 h): 2.8 μgr/gr
- Distribution of SAM in rat tissues: Suprarenal glands ([14]; 24 h): 4.4 μgr/gr
- distribution to tissues ([14]; rat): distributed very rapidly to all the tissues
- analgesic activity (Randal and Selitto test): active
- symptomatology in arteriosclerosis ([15]; intermuscular, intravenous or slow phleboclysis, 8 to 16 mg 3-4 times per day): a very favourable modification of the symptomatology
- improvement of the clinical framework in post-apoplectic syndromes ([15]; post-apoplectic syndromes): a greater rapidity was found in the improvement
- analgesic activity (hot plate test): active
- teratogenic actions or malformations (rabbits): no teratogenic actions were encountered or any malformations

SMILES: C[S+](CC[C@H](N)C(=O)O)C[C@H]1O[C@@H](n2cnc3c(N)ncnc32)[C@H](O)[C@@H]1O (some centres unmarked) [chloride]
- decomposition after 60 days [16]: completely decomposed
